Experiments:
CACO-2 monolayer = assay type: in vitro ADME
Protocol: A study concerning the determination of the in vitro absorption of SR 57746 A as a micronized form I/III mixture was carried out using the CACO-2 monolayer model. This test, which is widely used as a predictive intestinal epithelial model for drug absorption (P. Artusson, Crit. Rev. Ther. Drug, 1991, 8: 305-330), made it possible to show significant differences in terms of dissolution and permeability between SR 57746 A as a micronized form I/III mixture and the SR 57746 A obtained according to EP 0 101 381.

[1] = system: amyotrophic lateral sclerosis; details: 2 mg/day; cited from earlier work
[2] = preclinical animal pharmacology, toxicology and pharmacokinetic studies; assay type: in vivo, animals
[3] = Phase I clinical trials on healthy volunteers; assay type: in vivo

## Cl.FC(F)(F)c1cccc(C2=CCN(CCc3ccc4ccccc4c3)CC2)c1 [1-[2-(2-naphthyl)ethyl]-4-(3-trifluoromethylphenyl)-1,2,3,6-tetrahydropyridine hydrochloride]
CACO-2 monolayer
  dissolution and permeability after micronization: normalized
  rates of dissolution and permeability, compared between the two materials: significantly different

## Cl.FC(F)(F)c1cccc(C2=CCN(CCc3ccc4ccccc4c3)CC2)c1 [SR 57746 A, 1-[2-(2-naphthyl)ethyl]-4-(3-trifluoromethylphenyl)-1,2,3,6-tetrahydropyridine hydrochloride]
[1]
  clinical outcome in amyotrophic lateral sclerosis patients: proved promising
[2]; animals
  pharmacokinetic studies on animals: constant and reproducible results
[2]; preclinical trials
  activity and behavior in animal pharmacology and toxicology tests: constant activity and behavior
[3]
  variability in the pharmacodynamic effects: high variability
  variability in the plasma concentrations: high variability

From patent publication US6489334B2, “Method for the crystallization of a tetrahydropyridin derivative and resulting crystalline forms” (Sanofi-Synthelabo, priority 1996, dated 2002)
